The subject of one data set is R. solani. The data set can be described thus: microbe, parasite or virus in culture. Type of data set: cell-based. The conditions noted are these: Rhizoctonia solani; for inhibition at 50 µg/mL: read-out: The Inhibition Rate (%) R. solani; for EC50: read-out: EC50 (μg/mL) R. solani.
For a further data set, the system named is F. graminearum. Kind of data set: microbe, parasite or virus in culture. It is filed as cell-based. The note with it: Fusarium graminearum; for inhibition at 50 µg/mL: read-out: The Inhibition Rate (%) F. graminearum; for EC50: read-out: EC50 (μg/mL) F. graminearum.
In data set [1] the test system is C. capsica. The data set can be described thus: Mycelial growth inhibition test in vitro (C. capsica). Type of data set: cell-based. The conditions noted are these: Colletotrichum; for inhibition at 50 µg/mL: 50 μg/mL, mean ± SD of three replicates, read-out: The Inhibition Rate (%) C. capsica; for EC50: read-out: EC50 (μg/mL) C. capsica. How it is done: The antifungal activity of the target compound was tested by the mycelial growth inhibition rate method. The compounds were detected at a concentration of 50 μg/mL, and carbendazim was used as the positive control. The antifungal activity was carried out according to literature reports. After drilling the mycelium (3 mm), it was inoculated into the PDA medium containing compounds, and the Petri dish was put into the incubator at 25 °C for 12-48 h; then, the colony diameter was measured with 50 index vernier caliper by the cross method, and the data were recorded. […] • A: The average diameter of the blank medium colony. • B: Diameter of mushroom cake (3 mm). • C: The average diameter of the colonies in the medium containing compound. […] The PDA medium containing different concentrations of the compound was prepared by the two-fold dilution method, the final concentration of the compound in the medium was adjusted to 0-100.00 μg/mL, and three parallel samples were set for each concentration. […] The toxicity regression equation of the tested compound was obtained, taking the logarithm of compound concentration (lgc) as the independent variable (x) and the probability value of inhibition rate as the dependent variable (y), and the EC50 value of each tested compound was calculated.

The nature of data set [2]: MTT cytotoxicity evaluation on MCF-7 cells. Type of data set: cell-based. The note with it: human, range 0~100 μM. How it is done: (§1) Cells were incubated at 37 °C in an incubator with 5% CO2. Cell viability was determined using the MTT assay. Briefly, MCF-7 cell lines were seeded at 5000–8000 cells/well in 96-well plates. […] Following a continuous 24 h of incubation, the culture medium was replaced by 90 μL fresh culture medium, and 10 μL MTT solution was added.

The test system of the next data set is E. turcicum. Kind of data set: Mycelial growth inhibition test in vitro (E. turcicum). Type of data set: cell-based. The conditions noted are these: Exserohilum turcicum; for inhibition at 50 µg/mL: 50 μg/mL, mean ± SD of three replicates, read-out: The Inhibition Rate (%) E. turcicum; for EC50: read-out: EC50 (μg/mL) E. turcicum.
For a further data set, the system named is B. cinerea. The data set can be described thus: Mycelial growth inhibition test in vitro (B. cinerea). It is filed as cell-based. The conditions noted are these: Botrytis cinerea; 50 μg/mL, mean ± SD of three replicates; read-out: The Inhibition Rate (%) B. cinerea. Here is the method: The antifungal activity of the target compound was tested by the mycelial growth inhibition rate method. The compounds were detected at a concentration of 50 μg/mL, and carbendazim was used as the positive control. The antifungal activity was carried out according to literature reports. After drilling the mycelium (3 mm), it was inoculated into the PDA medium containing compounds, and the Petri dish was put into the incubator at 25 °C for 12-48 h; then, the colony diameter was measured with 50 index vernier caliper by the cross method, and the data were recorded. […] • A: The average diameter of the blank medium colony. • B: Diameter of mushroom cake (3 mm). • C: The average diameter of the colonies in the medium containing compound.

Data set [3] deals with C. capsica. Kind of data set: Antifungal activity in vivo: protective effect on detached pepper infected by C. capsica. Details: species or system Colletotrichum capsica. How it is done: The protective effects of compounds 4q and 4f and carbendazim on pepper infected by […] studied. […] The peppers were washed with water and dried, and the surface was wiped with 75% ethanol for sterilization. The infected area was pricked with a diameter of 4 mm on the surface of the green pepper with a sterile inoculation needle. After spraying the antifungus compound solution on the surface and resting for 12 h, the activated cake (4 mm in diameter) was inoculated into the infected area. After culturing at 25 °C for 1 to 7 days, the plaque diameter was measured by the cross method, and the efficacy was calculated according to Formula (2).(2) Control efficacy%=A-B/A-C×100% • A: The average diameter of the blank medium colony. • B: The average diameter of the colonies in the medium containing compound. • C: Diameter of mushroom cake (3 mm/4 mm).

Another data set relates to MCF-7 cell line. The data set can be described thus: MTT cytotoxicity evaluation on MCF-7 cells. The note with it: 100 μM, 24 h. It is filed as cell-based. How it is done: as §1

Values after ≈ are worked out from the molar mass of the structure shown. Like-named read-outs stand apart in the source and are kept apart here. Where only a bound is given, the exact number is not on record here.

One may read the inhibition as how much of the control response was suppressed. One may read the IC50 as the concentration at which inhibition is half-maximal. A low value points to greater potency.

Regarding `Oc1cc(O)cc(-c2nc(-c3ccccc3)no2)c1` [Compound 4e, 5-(3-Phenyl-1,2,4-oxadiazol-5-yl) benzene-1,3-diol], the inhibition at 50 µg/mL in the data set on R. solani is 16.6 ± 1.47%; in the data set on F. graminearum it was 30.1 ± 4.51%; in the data set on C. capsica [1], 18.8 ± 3.1%; in the data set with E. turcicum it was 26.5 ± 3.09%; in the data set with B. cinerea, less than 10%. The compound further showed a 50% inhibitory concentration (IC50) at 24 h in data set [2] not below 100 µM.
For `COc1cc(/C=C/c2nc(-c3ccccc3)no2)cc(OC)c1OC` [Compound 5b, (E)-3-Phenyl-5-(3,4,5-trimethoxystyryl)-1,2,4-oxadiazole], the inhibition at 50 µg/mL in the data set on R. solani was 21.2 ± 2.78%; in the data set on F. graminearum, 36.1 ± 1.67%; in the data set on C. capsica [1] it was 20.6 ± 4.48%; in the data set with E. turcicum, 31.8 ± 1.44%; in the data set on B. cinerea it was 30.2 ± 6.4%. This compound also showed an IC50 at 24 h in data set [2] not below 100 µM.
As for `COc1ccc(-c2noc(-c3ccc(C(C)(C)C)cc3)n2)cc1OC` [Compound 4n, 5-(4-(tert-Butyl)phenyl)-3-(3,4-dimethoxyphenyl)-1,2,4-oxadiazole], the inhibition at 50 µg/mL is less than 10% with R. solani; less than 10% in the data set with F. graminearum; less than 10% in the data set with C. capsica [1]; 29.8 ± 1.26% in the data set with E. turcicum; less than 10% with B. cinerea. The IC50 at 24 h in data set [2] was not below 100 µM.
On to `COC(=O)Nc1nc2ccccc2[nH]1` [carbendazim, reference compound], for which the EC50 is 1.1 µg/mL (≈ 5.75 µM) in the data set with R. solani; 19.6 µg/mL (≈ 102 µM) in the data set on F. graminearum; 0.22 µg/mL (≈ 1.15 µM) in the data set on C. capsica [1] (mycelial growth, 0–100.00 μg/mL two-fold dilution); 110 µg/mL (≈ 573 µM) in the data set with E. turcicum. Moreover, the “Control efficacy (%)” value is given as 100% in the data set on C. capsica [3] (500 μg/mL, 5 days) and 100% with C. capsica [3] (1000 μg/mL, 5 days).
Regarding `COc1ccc(-c2noc(/C=C/c3ccccc3)n2)cc1OC` [Compound 5e, (E)-3-(3,4-Dimethoxyphenyl)-5-styryl-1,2,4-oxadiazole], the inhibition at 50 µg/mL is 23.9 ± 0.59% in the data set on R. solani; 28.7 ± 5.14% in the data set on F. graminearum; less than 10% in the data set on C. capsica [1]; 29.4 ± 2.05% in the data set with E. turcicum; 30.6 ± 1.43% with B. cinerea. For the same compound, in the data set with MCF-7 cell line, the “cell survival rate of MCF-7 cells” value is on record as “significant cell proliferation”.
In the case of `Clc1ccc(/C=C/c2nc(-c3ccccc3)no2)cc1` [Compound 5c, (E)-5-(4-Chlorostyryl)-3-phenyl-1,2,4-oxadiazole], the inhibition at 50 µg/mL in the data set on R. solani, with F. graminearum, in the data set with E. turcicum and in the data set on B. cinerea was less than 10% throughout. Further, in the data set with MCF-7 cell line, the “cell survival rate of MCF-7 cells” value is on record as “significant cell proliferation”.
Turning to `Oc1ccc(-c2nc(-c3ccccc3)no2)cc1O` [Compound 4f, 4-(3-Phenyl-1,2,4-oxadiazol-5-yl) benzene-1,2-diol], the EC50 in the data set with R. solani was 12.7 µg/mL (≈ 49.9 µM); in the data set with F. graminearum, 30 µg/mL (≈ 118 µM); with C. capsica [1], 8.81 µg/mL (≈ 34.7 µM); in the data set with E. turcicum, 29.1 µg/mL (≈ 115 µM). The inhibition at 50 µg/mL amounted to 80.9 ± 2.4% with R. solani; 100% with F. graminearum; 86.8 ± 3.11% with C. capsica [1]; 85.7 ± 1.97% in the data set with E. turcicum; 38.9 ± 5.35% with B. cinerea. The “Control efficacy (%)” value with C. capsica [3] (500 μg/mL, 5 days) amounted to 100%; in the data set on C. capsica [3] (1000 μg/mL, 3 day), 100%.
Consider `COc1cc(-c2noc(-c3ccc(C(C)(C)C)cc3)n2)cc(OC)c1OC` [Compound 4u, 5-(4-(tert-Butyl)phenyl)-3-(3,4,5-trimethoxyphenyl)-1,2,4-oxadiazole], for which the inhibition at 50 µg/mL in the data set on R. solani, in the data set on F. graminearum, with C. capsica [1], with E. turcicum and with B. cinerea was less than 10% throughout. This compound gave a 50% inhibitory concentration (IC50) at 24 h in data set [2] not below 100 µM.
Consider `O=[N+]([O-])c1ccc(-c2nc(-c3ccccc3)no2)cc1` [Compound 4i, 5-(4-Nitrophenyl)-3-phenyl-1,2,4-oxadiazole], for which the inhibition at 50 µg/mL with R. solani, in the data set with F. graminearum, in the data set on E. turcicum and in the data set with B. cinerea was less than 10% in each case. Moreover, the “cell survival rate of MCF-7 cells” value in the data set with MCF-7 cell line was “significant cell proliferation”.
Take `COc1ccc(-c2noc(-c3ccc(C(C)(C)C)cc3)n2)cc1` [Compound 4l, 5-(4-(tert-Butyl)phenyl)-3-(4-methoxyphenyl)-1,2,4-oxadiazole]: the inhibition at 50 µg/mL in the data set with R. solani is less than 10%; with F. graminearum it was 27.6 ± 1.78%; in the data set on C. capsica [1], less than 10%; in the data set with E. turcicum, 24.2 ± 3.77%; with B. cinerea it was less than 10%. The “cell survival rate of MCF-7 cells” value in the data set with MCF-7 cell line is “significant cell proliferation”.
Take `COc1ccc(-c2noc(-c3ccc(OC)c(OC)c3)n2)cc1` [Compound 4k, 5-(3,4-Dimethoxyphenyl)-3-(4-methoxyphenyl)-1,2,4-oxadiazole]: the inhibition at 50 µg/mL was 22.6 ± 8.85% in the data set with R. solani; 21.7 ± 2.53% with F. graminearum; less than 10% in the data set on C. capsica [1]; less than 10% in the data set with E. turcicum; less than 10% with B. cinerea.
As to `COc1ccc(-c2noc(-c3ccc(Cl)cc3)n2)cc1` [Compound 4j, 5-(4-Chlorophenyl)-3-(4-methoxyphenyl)-1,2,4-oxadiazole], the inhibition at 50 µg/mL in the data set on R. solani, with F. graminearum, in the data set with C. capsica [1], with E. turcicum and with B. cinerea was less than 10% in each case.
`Oc1cccc(-c2nc(-c3ccccc3)no2)c1` [Compound 4d, 3-(3-Phenyl-1,2,4-oxadiazol-5-yl) phenol]: the inhibition at 50 µg/mL was 18.6 ± 2.71% in the data set with R. solani; 40.2 ± 1.5% in the data set on F. graminearum; 22.3 ± 2.97% with C. capsica [1]; 46.1 ± 0.74% in the data set on E. turcicum; 36.8 ± 9.53% with B. cinerea. This compound gave an IC50 at 24 h in data set [2] not below 100 µM.
For the compound `COc1ccc(-c2noc(-c3cc(O)cc(O)c3)n2)cc1OC` [Compound 4p, 5-(3-(3,4-Dimethoxyphenyl)-1,2,4-oxadiazol-5-yl)benzene-1,3-diol], the inhibition at 50 µg/mL was less than 10% with R. solani; less than 10% in the data set on F. graminearum; 0% in the data set with C. capsica [1]; 11.2 ± 1.91% with E. turcicum; less than 10% with B. cinerea. Also, the “cell survival rate of MCF-7 cells” value with MCF-7 cell line was “significant cell proliferation”.
Consider `COc1ccc(-c2nc(-c3cc(OC)c(OC)c(OC)c3)no2)cc1OC` [Compound 4t, 5-(3,4-Dimethoxyphenyl)-3-(3,4,5-trimethoxyphenyl)-1,2,4-oxadiazole], for which the inhibition at 50 µg/mL was less than 10% in the data set on R. solani, 28.3 ± 2.19% with F. graminearum, less than 10% in the data set on E. turcicum and less than 10% with B. cinerea. Besides, the “cell survival rate of MCF-7 cells” value in the data set on MCF-7 cell line is listed as “significant cell proliferation”.
For the compound `COc1ccc(-c2nc(-c3ccccc3)no2)cc1OC` [Compound 4b, 5-(3,4-Dimethoxyphenyl)-3-phenyl-1,2,4-oxadiazole], the inhibition at 50 µg/mL is 18.7 ± 5.82% with R. solani; 23.8 ± 7.22% in the data set on F. graminearum; less than 10% with C. capsica [1]; 60.4 ± 1.68% in the data set with E. turcicum; less than 10% in the data set on B. cinerea.

For the origin of these results see paper PMC12029309, “Synthesis and Antifungal Activity of 1,2,4-Oxadiazole Derivatives” (Molecules, 2025).
